Results published in US20230002348A1 (ILDONG PHARMACEUTICAL CO., LTD., priority 2019, published 2023).
Like-named read-outs stand apart in the source and are kept apart here.

Molecular target: T1, GLP-1 receptor (Homo sapiens, UniProt P43220)
T1 construct: expressed in transfected cells; host or cells: CHO-K1
Test: cAMP assay (HTRF) in GLP-1 receptor CHO-K1 cells
Assay type: cell-based
Details: for Emax: CHO-K1, cAMP stimulation ratio
Description: The cAMP assay test was performed according to a method optimized based on a protocol provided by cAMP assay kit manufacturer (CISBIO). […] 54, of the compounds according to the Examples 1, 2, 5, 8, 12, 13, 15, 16, 19, 20, 23, 29, 32, 37, 39 and 43 at the concentration of 0, 1, 10, 100, 1000, 10000 nM was treated to each of the wells of the other plates, respectively. The cells were incubated at room temperature for 7 minutes. A cAMP-d2 conjugate reagent was prepared by mixing a cAMP conjugate with an elution buffer at a ratio of 1:4. An anti-cAMP cryptate conjugate reagent was prepared by mixing a […] with an elution buffer at a ratio of 1:4. Then, 5 μL, of the cAMP-d2 conjugate reagent was added to each of the wells. Subsequently, 5 μL, of the anti-cAMP cryptate conjugate reagent was added to each of the wells. After incubation of the cells at room temperature for 1 hour, HTRF signals at wavelengths of 665 nm and 620 nm of the culture were measured using a FlexStaton 3 (Molecular Devices) instrument. The ratio of 665/620 was calculated from the measured values at 665 nm and 620 nm with regard to Exendin-4 and the compounds of the Examples, respectively.

[1] = 665/620 ratio with Exendin-4 converted to 100%

T1 sequence (P43220 24-463, species assumed): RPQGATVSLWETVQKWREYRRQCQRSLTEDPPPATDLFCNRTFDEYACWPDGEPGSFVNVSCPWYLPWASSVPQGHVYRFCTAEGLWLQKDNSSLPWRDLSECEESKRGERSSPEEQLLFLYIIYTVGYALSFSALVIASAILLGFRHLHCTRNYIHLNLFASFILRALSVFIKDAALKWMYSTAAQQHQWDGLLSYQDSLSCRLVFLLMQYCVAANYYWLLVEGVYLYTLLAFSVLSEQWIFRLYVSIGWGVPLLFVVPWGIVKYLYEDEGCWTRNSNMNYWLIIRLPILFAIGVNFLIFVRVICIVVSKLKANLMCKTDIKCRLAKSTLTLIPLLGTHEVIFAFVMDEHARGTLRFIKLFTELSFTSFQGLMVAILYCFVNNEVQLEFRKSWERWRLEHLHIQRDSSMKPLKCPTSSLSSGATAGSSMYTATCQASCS

Row | SMILES | EC50 [nM] | Emax [1] [%] | EC50 (GLP-1 receptor CHO-K1 cells, cAMP HTRF, 7 minutes incubation at room temperature) [nM] | Emax (%) (cAMP stimulation ratio, 665/620 ratio with Exendin-4 converted to 100%)
1 | N#Cc1ccc(COc2cccc(NC3CCN(Cc4nc5ccc(C(=O)O)cc5n4C[C@@H]4CCO4)CC3)n2)c(F)c1 [Example 1, (S)-2-((4-((6-((4-cyano-2-fluorobenzyl)oxy)pyridin-2-yl)amino)piperidin-1-yl)methyl)-1-(oxetan-2-ylmethyl)-1H-benzo[d]imidazole-6-carboxylic acid] | < 100 | 96.3 |  | 
2 | N#Cc1ccc(COc2cccc(NC3CCN(Cc4nc5ccc(C(=O)O)cc5n4C[C@@H]4CCO4)CC3)c2)c(F)c1 [Example 2, (S)-2-((4-((3-((4-cyano-2-fluorobenzyl)oxy)phenyl)amino)piperidin-1-yl)methyl)-1-(oxetan-2-ylmethyl)-1H-benzo[d]imidazole-6-carboxylic acid] | 100 to 200 | 102 |  | 
3 | O=C(O)c1ccc2nc(CN3CCC(Oc4cccc(NCc5ccc(Cl)cc5F)n4)CC3)n(C[C@@H]3CCO3)c2c1 [Example 5, (S)-2-((4-((6-((4-chloro-2-fluorobenzyl)amino)pyridin-2-yl)oxy)piperidin-1-yl)methyl)-1-(oxetan-2-ylmethyl)-1H-benzo[d]imidazole-6-carboxylic acid] | 100 to 200 | 107 |  | 
4 | N#Cc1ccc(COc2cc(N[C@@H]3CCN(Cc4nc5ccc(C(=O)O)cc5n4C[C@@H]4CCO4)C3)ccc2F)nc1 [Example 8, 2-(((R)-3-((3-((5-cyanopyridin-2-yl)methoxy)-4-fluorophenyl)amino)pyrrolidin-1-yl)methyl)-1-(((S)-oxetan-2-yl)methyl)-1H-benzo[d]imidazole-6-carboxylic acid] | < 100 | 99.6 |  | 
5 | O=C(O)c1ccc2nc(CN3CCC(Nc4cccc(OCc5ccc(Cl)cc5F)n4)CC3)n(C[C@@H]3CCO3)c2c1 [Example 12, (S)-2-((4-((6-((4-chloro-2-fluorobenzyl)oxy)pyridin-2-yl)amino)piperidin-1-yl)methyl)-1-(oxetan-2-ylmethyl)-1H-benzo[d]imidazole-6-carboxylic acid] | < 100 | 103 |  | 
6 | O=C(O)c1ccc2nc(CN3CCC(Nc4cccc(OCc5ccc(Cl)cc5F)n4)CC3)n(C[C@@H]3CCO3)c2n1 [Example 13] | < 100 | 94.5 |  | 
7 | O=C(O)c1ccc2nc(CN3CC[C@@H](Nc4cccc(OCc5ccc(Cl)cc5F)n4)C3)n(C[C@@H]3CCO3)c2c1 [Example 15, 2-(((R)-3-((6-((4-chloro-2-fluorobenzyl)oxy)pyridin-2-yl)amino)pyrrolidin-1-yl)methyl)-1-(((S)-oxetan-2-yl)methyl)-1H-benzo[d]imidazole-6-carboxylic acid] | < 100 | 99.6 |  | 
8 | O=C(O)c1ccc2nc(CN3CC[C@@H](Nc4cccc(OCc5ccc(Cl)cc5F)n4)C3)n(C[C@@H]3CCO3)c2n1 [Example 16, 2-(((R)-3-((6-((4-chloro-2-fluorobenzyl)oxy)pyridin-2-yl)amino)pyrrolidin-1-yl)methyl)-3-(((S)-oxetan-2-yl)methyl)-3H-imidazo[4,5-b]pyridine-5-carboxylic acid] | < 100 | 95 |  | 
9 | N#Cc1ccc(COc2cncc(NC3CCN(Cc4nc5ccc(C(=O)O)cc5n4C[C@@H]4CCO4)CC3)n2)c(F)c1 [Example 19, (S)-2-((4-((6-((4-cyano-2-fluorobenzyl)oxy)pyrazin-2-yl)amino)piperidin-1-yl)methyl)-1-(oxetan-2-ylmethyl)-1H-benzo[d]imidazole-6-carboxylic acid] | 100 to 200 | 97 |  | 

Results, then the compound that gave them:

Row | EC50 [nM] | Emax [1] [%] | EC50 (GLP-1 receptor CHO-K1 cells, cAMP HTRF, 7 minutes incubation at room temperature) [nM] | Emax (%) (cAMP stimulation ratio, 665/620 ratio with Exendin-4 converted to 100%) | SMILES
10 | < 100 | 96.3 |  |  | N#Cc1ccc(COc2cccc(N[C@@H]3CCN(Cc4nc5ccc(C(=O)O)cc5n4C[C@@H]4CCO4)C3)n2)c(F)c1 [Example 20, 2-((3-((6-((4-cyano-2-fluorobenzyl)oxy)pyridin-2-yl)amino)pyrrolidin-1-yl)methyl)-1-(((S)-oxetan-2-yl)methyl)-1H-benzo[d]imidazole-6-carboxylic acid]
11 | 100 to 200 | 99.8 |  |  | N#Cc1ccc(COc2nccc(N[C@@H]3CCN(Cc4nc5ccc(C(=O)O)cc5n4C[C@@H]4CCO4)C3)n2)c(F)c1 [Example 23, 2-(((R)-3-((2-((4-cyano-2-fluorobenzyl)oxy)pyrimidin-4-yl)amino)pyrrolidin-1-yl)methyl)-1-(((S)-oxetan-2-yl)methyl)-1H-benzo[d]imidazole-6-carboxylic acid]
12 | < 100 | 99.2 |  |  | O=C(O)c1ccc2nc(CN3CC[C@@H](Nc4ncc(F)c(OCc5ccc(Cl)cc5F)n4)C3)n(C[C@@H]3CCO3)c2c1 [Example 29, 2-(((R)-3-((4-((4-chloro-2-fluorobenzyl)oxy)-5-fluoropyrimidin-2-yl)amino)pyrrolidin-1-yl)methyl)-1-(((S)-oxetan-2-yl)methyl)-1H-benzo[d]imidazole-6-carboxylic acid]
13 |  |  | < 100 | 96.94 | N#Cc1ccc(COc2cccc(N[C@@H]3CCN(Cc4nc5ccc(C(=O)O)cc5n4C[C@@H]4CCO4)C3)n2)c(F)c1 [Example 32, 2-(((R)-3-((6-((4-cyano-2-fluorobenzyl)oxy)pyridin-2-yl)amino)pyrrolidin-1-yl)methyl)-1-(((S)-oxetan-2-yl)methyl)-1H-benzo[d]imidazole-6-carboxylic acid]
14 | < 100 | 127 |  |  | N#Cc1ccc(COc2cccc(N[C@@H]3CCN(Cc4nc5ccc(C(=O)O)cc5n4C[C@@H]4CCO4)C3)c2)c(F)c1 [Example 37, 2-(((R)-3-((3-((4-cyano-2-fluorobenzyl)oxy)phenyl)amino)pyrrolidin-1-yl)methyl)-1-(((S)-oxetan-2-yl)methyl)-1H-benzo[d]imidazole-6-carboxylic acid]
15 | 100 to 200 | 96.6 |  |  | O=C(O)c1ccc2nc(CN3CCC(Nc4cccc(OCc5ccc(Cl)cn5)n4)CC3)n(C[C@@H]3CCO3)c2c1 [Example 39, (S)-2-((4-((6-((5-chloropyridin-2-yl)methoxy)pyridin-2-yl)amino)piperidin-1-yl)methyl)-1-(oxetan-2-ylmethyl)-1H-benzo[d]imidazole-6-carboxylic acid]
16 | < 100 | 110 |  |  | N#Cc1ccc(COc2ccnc(N[C@@H]3CCN(Cc4nc5ccc(C(=O)O)cc5n4C[C@@H]4CCO4)C3)n2)c(F)c1 [Example 43, 2-(((R)-3-((4-((4-cyano-2-fluorobenzyl)oxy)pyrimidin-2-yl)amino)pyrrolidin-1-yl)methyl)-1-(((S)-oxetan-2-yl)methyl)-1H-benzo[d]imidazole-6-carboxylic acid]
